Like-named read-outs stand apart in the source and are kept apart here. Blank lines part the entries; values can stand above or below the compound they belong to.
Tests used:
[1] = Dynamic vapor sorption (DVS), sorption/desorption 5% to 95% RH; format: physicochemical
From the text: Dynamic vapor sorption data was collected on a Surface Measurement System DVS Intrinsic instrument. The samples were not dried prior to analysis. […] Data were not corrected for the initial moisture content of the sample.

[2] = by angle of repose
Procedure: Angle of repose is measured as follows. Powder is poured from a funnel onto a flat surface until a cone of powder is created. The angle of repose is calculated according to the following equation:
[formula] • Where: • h: height of the cone (mm) • r: radius of the cone (mm)
The height of the cone was estimated with calipers.

[3] = Biorelevant drug release, USP Apparatus 2, 0-30 min FaSSGF then FaSSGF + double strength FaSSIF; format: physicochemical; conditions: at 90 minutes, biorelevant media
Procedure: Biorelevant media as used herein is a combination of 2 different media used at different times. The first is in FaSSGF which stands for Fasted-state simulated gastric fluid and is used for 30 minutes of drug release. Afterwards, drug release is measured with addition of double strength FaSSIF which is Fasted-state simulated intestinal fluid. A skilled artisan would understand that the double strength FaSSIF is added at 30 minutes.
As used herein, the biorelevant drug release was conducted using a USP Apparatus 2 with (1) 0-30 minutes in 450 mL FaSSGF; and (2) 30-90 minutes FaSSGF+double strength FaSSIF in a total of 900 mL of media with pH adjusted to 6.5; with a paddle speed of 75 rpm (0-75 minutes) and 250 rpm (75-90 minutes) and a vessel temperature of 37° C.

[4] = Procedure: The aqueous solvents were water, 5% dextrose, 0.9% sodium chloride, Fasted State Simulated Intestinal Fluid (FaSSIF), Fed State Simulated Intestinal Fluid (FeSSIF) and Fasted State Simulated Gastric Fluid (FaSSGF). The organic solvents were methanol, ethanol, isopropanol and acetonitrile.
These fluids were prepared per the instruction listed by Biorelevant (Biorelevant.com). Each buffer concentrate was diluted with water and mixed well. FaSSIF, FeSSIF, FaSSGF powder was added to each buffer and mixed to completely dissolve the powder. Buffers were stored at room temperature and used within 48 hours of preparation.
Aliquots of each solvent were added to each sample and vortexed for about one minute until excess solid remained. Samples were placed on shaker at room temperature with 210 motion per minute shaking.
After one day, samples were pulled and checked if excess solid was present. About 1.5 mL aliquot of each sample was centrifuged at 12000 rpm for 12 to 15 minutes. […] Aliquots of the top clear solution of each centrifuged sample in MeOH, EtOH, IPA and ACN were diluted with diluent (water:MeOH 95:5) and assayed by HPLC.
A linear standard curve was constructed using standards with concentration between 11 μg/mL to 1.5 mg/mL as free acid forcing the curve to origin. Solubilities are reported as mg/mL free acid 25HC3S. Detection limit (LOD) of the HPLC method was calculated as 0.0007 mg/mL.

[5] = by compressibility index and Hausner ratio
Procedure: Although there are some variations in the method of determining the compressibility index and Hausner ratio, the basic procedure is to measure the unsettled apparent volume, VO, and the final tapped volume, Vf, of the powder after tapping the material until no further volume changes occur. The compressibility index and the Hausner ratio are calculated as follows: […]
Powder was carefully poured into a 5 mL glass graduated cylinder (to contain) until it was close to or at 5.0 mL. This initial volume was recorded as Vo. The graduated cylinder was tapped on a hard surface for 200 times and the volume was recorded. The cylinder was tapped 100 times more, and the final volume Vf was recorded.

[6] = remark: listed apart in the source
Procedure: Four vials were prepared and stored at 2-8° C. or […] according to Table B2. The samples were scheduled initially to pull for testing at 3 weeks and 6 weeks time points.
For appearance, each unopened vial was visually examined for color, clumping, and flowability.
Samples were prepared by pipetting 20 mL of 100% methanol into each vial and mixing well, with sonication and vortexing to fully dissolve the samples for HPLC analysis.
HPLC analysis was performed.

[7] = Clinical study: safety and tolerability of oral doses of 25HC3S; format: in vivo, healthy male and female subjects
From the text: The secondary objective for both Parts 1 and 2 of the study was: • To provide information on the safety and tolerability of oral doses of 25HC3S in healthy subjects
The evaluation of safety parameters comprised analysis of adverse events, laboratory variables (hematology, clinical chemistry and urinalysis), vital signs, electrocardiograms (ECGs) and physical examination findings.

[8] = after jet milling
Procedure: Crystalline 25HC3S was placed in a JAM-2-2002 mill under nitrogen and milled. The materials were then placed into product containers. Jet milling was conducted at a feed rate of 300 g/hour, with a venturi pressure of 50 psi and mill pressure of 120 psi of nitrogen. The target specification was set to having a Dv (90) of less than 10 microns.

- weight loss on the return to 5% relative humidity ([1]; DVS desorption 95% to 5% RH): 0.5%
- Flow Property per USP<1174> Powder Flow [2]: Good (31-35)
- drug release [3]: ~ 10%
- Solubility in 0.9% Sodium Chloride [4]: low solubility
- Solubility in 5% Dextrose [4]: 0.093 mg/mL as Free Acid
- Solubility in ACN [4]: 0.5 mg/mL as Free Acid
- Solubility in EtOH [4]: 3.4 mg/mL as Free Acid
- Solubility in IPA [4]: 0.6 mg/mL as Free Acid
- Solubility in MeOH [4]: 17.5 mg/mL as Free Acid
- Solubility in Water [4]: 0.107 mg/mL as Free Acid
- Scale of Flowability per USP<1174> (Flow Character) [5]: Very, very poor (>38)
- % Impurities 25-HC (25-Hydroxy-Cholesterol) ([6]; 2-8° C., 3 wk): 0.2%
- % Impurities SD (Sulfate Desmosterol) ([6]; 2-8° C., 3 wk): 0.4%
- % Impurities Total ([6]; 2-8° C., 3 wk): 1.0%
- Appearance ([6]; 2-8° C., 3 wk): White, free flowing powder with clumping
- Assay ([6]; 2-8° C., 3 wk): 101.6 % w/w
- % Impurities 25-HC (25-Hydroxy-Cholesterol) ([6]; 2-8° C., 5 wk): 0.2%
- % Impurities SD (Sulfate Desmosterol) ([6]; 2-8° C., 5 wk): 0.3%
- % Impurities Total ([6]; 2-8° C., 5 wk): 0.9%
- Appearance ([6]; 2-8° C., 5 wk): White, free flowing powder with clumping
- Assay ([6]; 2-8° C., 5 wk): 108.1 % w/w
- % Impurities 25-HC (25-Hydroxy-Cholesterol) ([6]; 80° C., 3 wk): 0.4%
- % Impurities SD (Sulfate Desmosterol) ([6]; 80° C., 3 wk): 0.4%
- % Impurities Total ([6]; 80° C., 3 wk): 1.2%
- % Recovery of 2-8° C./3 wk VS 80° C../3 wk ([6]; 80° C., 3 wk): 100.8%
- Appearance ([6]; 80° C., 3 wk): White, free flowing powder with clumping
- Assay ([6]; 80° C., 3 wk): 102.4 % w/w
- % Impurities 25-HC (25-Hydroxy-Cholesterol) ([6]; 80° C., 5 wk): 0.2%
- % Impurities SD (Sulfate Desmosterol) ([6]; 80° C., 5 wk): 0.8%
- % Impurities Total ([6]; 80° C., 5 wk): 2.2%
- % Recovery of 2-8º C./5 wk VS 80° C./5 wk ([6]; 80° C., 5 wk): 97.3%
- Appearance ([6]; 80° C., 5 wk): White, free flowing powder with clumping
- Assay ([6]; 80° C., 5 wk): 105.2 % w/w
Structure (SMILES): C[C@H](CCCC(C)(C)O)[C@H]1CC[C@H]2[C@@H]3CC=C4C[C@@H](OS(=O)(=O)[O-])CC[C@]4(C)[C@H]3CC[C@]12C.C[N+](C)(C)CCO [25HC3S choline, 25-hydroxy-3β-cholesten-5-en-3-sulfate (25HC3S) choline]

Structure (SMILES): C[C@H](CCCC(C)(C)O)[C@H]1CCC2C3CC=C4C[C@@H](OS(=O)(=O)O)CC[C@]4(C)C3CC[C@@]21C (stereo partly drawn) [Tablet 25HC3S, [(3S,10R,13R,17R)-17-[(1R)-5-hydroxy-1,5-dimethyl-hexyl]-10,13-dimethyl-2,3,4,7,8,9,11,12,14,15,16,17-dodecahydro-1H-cyclopenta[a]phenanthren-3-yl]sulfate]
- subjects reporting TEAEs, overall ([7]; 16 subjects, all TEAEs mild, not related to IMP): 2 (12.5%)
- serious or severe TEAEs or deaths ([7]; all regimens): No serious, severe treatment-emergent adverse events (TEAEs) or deaths were reported
- tolerability ([7]; choline salt IR formulations up to 50 mg fed and fasted, sodium salt PiB and choline salt PiB 12.5 mg fasted): well tolerated
- total number of TEAEs ([7]; overall): 4

- composite Dv (90) [8]: 4 microns
Structure (SMILES): C[C@H](CCCC(C)(C)O)[C@H]1CC[C@H]2[C@@H]3CC=C4C[C@@H](OS(=O)(=O)[O-])CC[C@]4(C)[C@H]3CC[C@]12C.C[N+](C)(C)CCO [Micronized 25HC3S choline]

- water uptake (DVS isotherm, in words) ([1]; until about 95% relative humidity, batch containing Form I and Form II): significant water uptake
Structure (SMILES): C[C@H](CCCC(C)(C)O)[C@H]1CC[C@H]2[C@@H]3CC=C4C[C@@H](OS(=O)(=O)[O-])CC[C@]4(C)[C@H]3CC[C@]12C.[Na+] [crystalline 25HC3S sodium, Sodium [(3S,10R,13R,17R)-17-[(1R)-5-hydroxy-1,5-dimethyl-hexyl]-10,13-dimethyl-2,3,4,7,8,9,11,12,14,15,16,17-dodecahydro-1H-cyclopenta[a]phenanthren-3-yl]sulfate, reference compound]

Source: patent publication US20260207628A1, “25-HYDROXY-CHOLEST-5-EN-3-SULFATE CHOLINE, FORMULATIONS THEREOF AND METHODS FOR PREPARING, AND USES OF SAME” (Durect Corporation, priority 2022, published 2026)
